The target in this experiment is T1, KRas G12C (Homo sapiens, UniProt P01116, G12C).
T1 construct: NCI-H358 cells (ATCC CRL-5807) express KRas G12C
T1 sequence (P01116 1-188 isoform P01116-2 G12C): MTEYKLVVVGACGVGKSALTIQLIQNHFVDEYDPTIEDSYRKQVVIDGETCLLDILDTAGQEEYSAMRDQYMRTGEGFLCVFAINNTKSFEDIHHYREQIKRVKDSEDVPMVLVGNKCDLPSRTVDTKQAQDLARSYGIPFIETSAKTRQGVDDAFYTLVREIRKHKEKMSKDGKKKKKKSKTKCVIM
Briefly: Inhibition of KRas G12C-dependent cell growth: Phospho-ERK in NCI-H358 cells. In kind it is cell-based. As to conditions: NCI-H358 cells expressing KRas G12C; Phospho-ERK (Thr202/Tyr204) normalized to GAPDH; 3 hours compound; 4 parameter fit. An outline of the steps:
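Phospho-ERK read-out in KRas G12C-expressing NCI-H358 cells after 3 h compound treatment (final DMSO 0.5%), by in-cell infrared immunodetection. Signal normalized to GAPDH and to DMSO controls. 4-parameter curve fit gave IC50.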
`C=CC(=O)N1CCN(c2nc(OC)nc3c(F)c(-c4cccc5ccc(F)c(Cl)c45)ncc23)C[C@@H]1CC#N` [Example 136] yielded an IC50 of 0.092 µM.
The result for `C=CC(=O)N1CCN(c2ncnc3c(F)c(-c4cccc5cccc(Cl)c45)ncc23)CC1` [Example 137] reads 3.35 µM.
Under `C=CC(=O)N1CCC2(C1)CN(c1ncnc3c(F)c(-c4cccc5ccc(F)c(Cl)c45)ncc13)C2` [Example 138] stands 7.17 µM.
The result for `C=C(F)C(=O)N1CCN(c2nc(OCC3CCN3CC)nc3c(F)c(-c4cccc5ccc(F)c(Cl)c45)ncc23)C[C@@H]1CC#N` (stereo partly drawn) [Example 139] reads 0.037 µM; that for `C=C(F)C(=O)N1CCN(c2nc(OC[C@@H]3CCCN3C3CCC3)nc3c(F)c(-c4cccc5ccc(F)c(Cl)c45)ncc23)C[C@@H]1CC#N` [Example 140], 0.014 µM; that for `C=CC(=O)N1CCN(c2nc(OC[C@@H]3CCCN3C)nc3c(F)c(-c4cccc5ccc(F)c(Cl)c45)ncc23)C[C@@H]1C` [Example 141], 0.05 µM.
In turn, `C=C(F)C(=O)N1CCN(c2nc(OCc3cc4ncccc4[nH]3)nc3c(F)c(-c4cccc5ccc(F)c(Cl)c45)ncc23)C[C@@H]1CC#N` [Example 142] returned a concentration for half-maximal inhibition (IC50) of 1.25 µM.
`C=C(F)C(=O)N1CCN(c2nc(OCC34CCCN3CCOC4)nc3c(F)c(-c4cccc5ccc(F)c(Cl)c45)ncc23)C[C@@H]1CC#N` (stereo partly drawn) [Example 144] yielded an IC50 of 0.035 µM.
Take `C=C(F)C(=O)N1CCN(c2nc(OCC34CCCN3C[C@H](F)C4)nc3c(F)c(-c4cccc5ccc(F)c(Cl)c45)ncc23)C[C@@H]1CC#N` (stereo partly drawn) [Example 145]: the IC50 was found to be 0.002 µM.
In the case of `C=CC(=O)N1[C@@H](C)CN(c2ncnc3c(F)c(-c4cccc5ccc(F)c(Cl)c45)ncc23)C[C@@H]1C` [Example 146], half-maximal inhibition (IC50) required 10 µM.
The result for `C=C(F)C(=O)N1CCN(c2nc(OC[C@@H]3CCCN3C)nc3c(F)c(-c4cccc5ccc(Cl)c(Cl)c45)ncc23)C[C@@H]1CC#N` [Example 147] reads 0.023 µM; that for `C=CC(=O)N1C[C@H](C)N(c2ncnc3c(F)c(-c4cccc5ccc(F)c(Cl)c45)ncc23)[C@@H](C)C1` [Example 148], 6.28 µM; that for `C=CC(=O)N1C[C@@H](C)N(c2ncnc3c(F)c(-c4cccc5ccc(F)c(Cl)c45)ncc23)[C@@H](C)C1` [Example 149], 10 µM.
`C=CC(=O)N1CCN(c2ncnc3c(F)c(-c4cccc5ccc(F)c(Cl)c45)ncc23)C(CC#N)C1` (stereo not drawn) [Example 150]: half-maximal inhibition (IC50) was put at 10 µM.
Under `C=C(F)C(=O)N1CCN(c2nc(OCC3COC3)nc3c(F)c(-c4cccc5ccc(F)c(Cl)c45)ncc23)C[C@@H]1CC#N` [Example 151] stands 0.256 µM; under `C=CC(=O)N1CCN(c2nc(OC[C@@H]3CCCN3C)nc3c(F)c(-c4cccc5ccc(F)c(Cl)c45)ncc23)C[C@H]1C` [Example 152], 0.322 µM; under `C=CC(=O)N1CCN(c2nc(C)nc3c(F)c(-c4cccc5cccc(Cl)c45)ncc23)CC1` [Example 153], 10 µM.
The compound `C=C(F)C(=O)N1CCN(c2nc(OCC3(C)COC3)nc3c(F)c(-c4cccc5ccc(F)c(Cl)c45)ncc23)C[C@@H]1CC#N` [Example 154] registered an IC50 of 0.221 µM.
Under `C=CC(=O)N1CCN(c2nc(OC[C@@H]3CCCN3C)nc3c(F)c(-c4cccc5ccc(F)c(Cl)c45)ncc23)[C@H](C)C1` [Example 155] stands 0.585 µM.
Take `C=C(F)C(=O)N1CCN(c2nc(OCC3CCO3)nc3c(F)c(-c4cccc5ccc(F)c(Cl)c45)ncc23)C[C@@H]1CC#N` (stereo partly drawn) [Example 156]: it took 0.134 µM to reach half-maximal inhibition (IC50).
The result for `C=C(F)C(=O)N1CCN(c2nc(OC[C@@H]3CCCN3C)nc3c(F)c(-c4cccc5ccc(F)c(F)c45)ncc23)C[C@@H]1CC#N` [Example 157] reads 0.023 µM.
Compound `C=C(F)C(=O)N1CCN(c2nc(OC[C@H]3CN(C)CCO3)nc3c(F)c(-c4cccc5ccc(F)c(Cl)c45)ncc23)C[C@@H]1CC#N` [Example 158] returned an IC50 of 0.068 µM.
Regarding `C=CC(=O)N1CC2(C1)CN(c1ncnc3c(F)c(-c4cccc5ccc(F)c(Cl)c45)ncc13)C2` [Example 159], the IC50 stood at 10 µM.
The compound `C=C(F)C(=O)N1CCN(c2nc(OCC3(C)CCN3C)nc3c(F)c(-c4cccc5ccc(F)c(Cl)c45)ncc23)C[C@@H]1CC#N` (stereo partly drawn) [Example 161] displayed an IC50 of 0.011 µM.
Turning to `C=C(F)C(=O)N1CCN(c2ncnc3c(F)c(-c4cc(O)cc5ccccc45)ncc23)C[C@@H]1CC#N` [Example 162], it took 0.59 µM to reach half-maximal inhibition (IC50).
Turning to `C=CC(=O)N1CCN(c2nc(OC[C@@H]3CCCN3C)nc3c(F)c(-c4cccc5ccc(F)c(Cl)c45)ncc23)CC1C(F)(F)F` (stereo partly drawn) [Example 163], the half-inhibitory concentration (IC50) amounted to 0.11 µM.
The compound `C=CC(=O)N1CCN(c2nc(OC[C@@H]3CCCN3C)nc3c(F)c(-c4cccc5ccc(F)c(Cl)c45)ncc23)CC1CF` (stereo partly drawn) [Example 164] displayed a concentration for half-maximal inhibition (IC50) of 0.153 µM.
Regarding `C=CC(=O)N1CCN(c2nc(OC[C@@H]3CCCN3C)nc3c(F)c(-c4cccc5ccc(F)c(Cl)c45)ncc23)CC1C(F)F` (stereo partly drawn) [Example 165], the IC50 is 0.158 µM.
`C=C(F)C(=O)N1CCN(c2nc(OC[C@@H]3C[C@H](F)CN3C)nc3c(F)c(-c4cccc5ccc(F)c(Cl)c45)ncc23)C[C@@H]1CC#N` [Example 166] displayed an IC50 of 0.026 µM.
The compound `C=C(F)C(=O)N1CCN(c2nc(OC[C@H]3C[C@@H](F)CN3C)nc3c(F)c(-c4cccc5ccc(F)c(Cl)c45)ncc23)C[C@@H]1CC#N` [Example 167] gave an IC50 of 0.06 µM.
Compound `C=C(F)C(=O)N1CCN(c2nc(OC[C@H]3[C@H](F)CCN3C)nc3c(F)c(-c4cccc5ccc(F)c(Cl)c45)ncc23)C[C@@H]1CC#N` [Example 168] came in with an IC50 of 0.065 µM.
The compound `C=C(F)C(=O)N1CCN(c2nc(OC[C@@H]3CCN(C)C3)nc3c(F)c(-c4cccc5ccc(F)c(Cl)c45)ncc23)C[C@@H]1CC#N` [Example 169] had an IC50 of 0.06 µM.
Regarding `C=C(F)C(=O)N1CCN(c2nc(N3CC(N(C)C)C3)nc3c(F)c(-c4cccc5ccc(F)c(Cl)c45)ncc23)C[C@@H]1CC#N` [Example 170], the 50% inhibitory concentration (IC50) is 0.019 µM.
Compound `C=CC(=O)N1CCN(c2nc(OC[C@@H]3CCCN3C)nc3c(F)c(-c4cccc5ccc(F)c(Cl)c45)ncc23)CC1` [Example 171] gave an IC50 of 0.022 µM.
As for `C=C(F)C(=O)N1CCN(c2nc(OC[C@H]3CCN3CC)nc3c(F)c(-c4cccc5ccc(F)c(Cl)c45)ncc23)C[C@@H]1CC#N` [Example 172], the 50% inhibitory concentration (IC50) came to 0.018 µM.
`C=C(F)C(=O)N1CCN(c2nc(OC[C@@H]3CCN3CC)nc3c(F)c(-c4cccc5ccc(F)c(Cl)c45)ncc23)C[C@@H]1CC#N` [Example 173] had a concentration for half-maximal inhibition (IC50) of 0.031 µM.
Compound `C=C(F)C(=O)N1CCN(c2nc(OCC3CCC4CCCN43)nc3c(F)c(-c4cccc5ccc(F)c(Cl)c45)ncc23)C[C@@H]1CC#N` (stereo partly drawn) [Example 174] had an IC50 of 0.02 µM.
`C=CC(=O)N1CC[C@@H]2[C@H]1CN2c1ncnc2c(F)c(-c3cccc4ccc(F)c(Cl)c34)ncc12` [Example 175]: the midpoint of inhibition, the IC50, lay at 0.134 µM.
On to `C=C(F)C(=O)N1CCN(c2nc(OC[C@@H]3[C@@H](F)CCN3C)nc3c(F)c(-c4cccc5ccc(F)c(Cl)c45)ncc23)C[C@@H]1CC#N` [Example 176], for which it took 0.03 µM to reach half-maximal inhibition (IC50).
`C=C(F)C(=O)N1CCN(c2nc(OC[C@H]3[C@@H](F)CCN3C)nc3c(F)c(-c4cccc5ccc(F)c(Cl)c45)ncc23)C[C@@H]1CC#N` [Example 177] gave a 50% inhibitory concentration (IC50) of 0.051 µM.
Consider `C=CC(=O)N1CCN(c2ncnc3c(F)c(-c4cc(O)cc5cccc(Cl)c45)ncc23)CC1` [Example 178], for which the IC50 was determined as 0.063 µM.
The compound `C=C(F)C(=O)N1CCN(c2nc(OCC34CCCN3C[C@H](F)C4)nc3c(F)c(-c4cccc5ccc(F)c(Cl)c45)ncc23)C[C@@H]1CC#N` (stereo partly drawn) [Example 181] had an IC50 of 0.004 µM.
`C=C(F)C(=O)N1CCN(c2nc(OC[C@@H]3CCCN3CCF)nc3c(F)c(-c4cccc5ccc(F)c(Cl)c45)ncc23)C[C@@H]1CC#N` [Example 182]: the half-inhibitory concentration (IC50) amounted to 0.027 µM.
The result for `C=CC(=O)N1CCN(c2ncnc3c(F)c(-c4cccc5ccc(F)c(Cl)c45)ncc23)C[C@@H]1CC(F)F` [Example 183] reads 10 µM; that for `C=CC(=O)N1CCN(c2nc(OC[C@@H]3CCCN3C)nc3c(F)c(-c4ccccc4F)ncc23)CC1` [Example 184], 10 µM.
The result for `C=C(F)C(=O)N1CCN(c2nc(OC[C@@H]3CCCN3CC(F)F)nc3c(F)c(-c4cccc5ccc(F)c(Cl)c45)ncc23)C[C@@H]1CC#N` [Example 185] reads 0.145 µM; that for `C=CC(=O)N1CCN(c2ncnc3c(F)c(-c4ccccc4F)ncc23)[C@@H](C)C1` [Example 186], 10 µM; that for `C=CC(=O)N1CCN(c2nc(N3CCC3)nc3c(F)c(-c4cccc5ccc(F)c(Cl)c45)ncc23)C[C@@H]1CC#N` [Example 187], 0.074 µM.
Take `C=C(F)C(=O)N1CCN(c2nc(OCC34CCCN3C(CF)CC4)nc3c(F)c(-c4cccc5ccc(F)c(Cl)c45)ncc23)C[C@@H]1CC#N` (stereo partly drawn) [Example 188]: the half-maximal inhibitory concentration (IC50) was 0.029 µM.
Regarding `C=CC(=O)N1C[C@@H]2[C@H]1CCN2c1ncnc2c(F)c(-c3cccc4ccc(F)c(Cl)c34)ncc12` [Example 190], the 50% inhibitory concentration (IC50) is 10 µM.
The result for `C=C(F)C(=O)N1CCN(c2nc(OC[C@@H]3[C@H]4C[C@H]4CN3C)nc3c(F)c(-c4cccc5ccc(F)c(Cl)c45)ncc23)C[C@@H]1CC#N` [Example 191] reads 0.015 µM; that for `C=C(F)C(=O)N1CCN(c2nc(OC[C@@H]3[C@@H]4C[C@@H]4CN3C)nc3c(F)c(-c4cccc5ccc(F)c(Cl)c45)ncc23)C[C@@H]1CC#N` [Example 192], 0.038 µM; that for `C=C(F)C(=O)N1CCN(c2nc(OC[C@H]3CN(C)C[C@H]3F)nc3c(F)c(-c4cccc5ccc(F)c(Cl)c45)ncc23)C[C@@H]1CC#N` [Example 193], 0.067 µM.
`C=C(F)C(=O)N1CCN(c2nc(OC[C@@H]3CN(C)C[C@@H]3F)nc3c(F)c(-c4cccc5ccc(F)c(Cl)c45)ncc23)C[C@@H]1CC#N` [Example 194] returned an IC50 of 0.064 µM.

Values taken from US11548888B2, “KRas G12C inhibitors” (Mirati Therapeutics, Inc., priority 2019, dated 2023).
